These results are taken from patent US4591573A (priority 1983, dated 1986).

In data set [1] the test system is antibody to L-hyoscyamine (antiserum). In kind it is binding, New Zealand white rabbit.
Data set [2] deals with antibody of Virtanen radioimmunoassay. To be noted: cited from earlier work.
Data set [3] has as its system antibody of Wurzeburger radioimmunoassay. Conditions: cited from earlier work.
Data set [4] has as its system spinal cord. To be noted: dog, in vivo; cited from earlier work.
Data set [5] concerns mice. To be noted: mouse, in vivo; cited from earlier work.
In data set [6] the test system is patients. To be noted: human, in vivo; cited from earlier work.
For data set [7] the following is noted: in vivo; cited from earlier work.
For data set [8], the system named is peripheral parasympathetic nervous system. Conditions: in vivo; cited from earlier work.
Data set [9] has as its system children (flush). Conditions: in vivo, po; cited from earlier work.
Data set [10] deals with frogs. Conditions: in vivo; cited from earlier work.
The conditions of data set [11]: in vivo; cited from earlier work. This is another data set of the same source.
Data set [12] concerns human eyes. To be noted: in vivo; cited from earlier work.

Where a name gives a salt, the structure may show the parent alone.

For `CN1[C@@H]2CC[C@H]1C[C@@H](OC(=O)C(O)c1ccccc1)C2` (mixture of isomers) [Homatropine, dl-homatropine-HBr], in [1], the “recognition by / cross-reaction with the antibody” value (shortened to “recognition by / cross-reaction”) is “recognized by the antibody”.

In the case of `O=C(O)C(CO)c1ccccc1` (racemic) [Tropic Acid, dl-tropic acid], in data set [1], the “% Cross-reactivity” value came to 0% and the “recognition by / cross-reaction” value is listed as “did not cross-react with the antibody”.

`CN1[C@@H]2CC[C@H]1C[C@@H](OC(=O)C(CO)c1ccccc1)C2` (mixture of isomers) [atropine, D,L-hyoscyamine]: in data set [1], the “% Cross-reactivity” value is 30%; the “Specificity (cross-reactivity), Verma” value amounted to 37%; the “cross reaction / cross-reactivity with antibody of the invention” value was “about 37%”; the “recognition by / cross-reaction” value was “recognized by the antibody”. Also, the “Specificity (cross-reactivity), Virtanen” value in [2] was 100%. Moreover, the “Specificity (percentage of cross reactivity), Wurzeburger” value in data set [3] is 100%. Also, the “effect on excitability of the spinal cord” value in data set [4] was “increase the excitability of the spinal cord”. In addition, the narcotization entry in data set [5] is “became narcotized”. The complications entry in data set [6] is on record as “tachycardia, lethal arrhythmias and/or extension of the myocardial infarction”. For the same compound, in [7], the cycloplegic effect entry was “exert a cycloplegic effect” and the effect on thermoregulation result was “hinders thermoregulation”.

With `CN1[C@@H]2CC[C@H]1C[C@@H](OC(=O)[C@@H](CO)c1ccccc1)C2` [D-hyoscyamine], the “cross reaction / cross-reactivity with antibody of the invention” value in data set [1] is recorded as “about 37%”. Moreover, in data set [8], the “peripheral activity” value was “peripherally inactive”. For the same compound, the “quantity required for flush, as multiple” value in [9] is given as 20-40 times. Also, the “effect on spinal cord” value in data set [10] was “an excitant to the spinal cord”. Further, the “rate of destruction compared with L-form” value in [11] was “destroyed more slowly than the L-form”.

With `CN1[C@@H]2CC[C@H]1C[C@@H](OC(=O)[C@H](CO)c1ccccc1)C2` [L-hyoscyamine sulphate], the “action on human eyes” value in [12] is 0.25% solution, can replace a 1% solution of atropine sulphate.

On to `CN1[C@@H]2CC[C@H]1C[C@@H](OC(=O)[C@H](CO)c1ccccc1)C2` [L-hyoscyamine], for which, in [1], the “% Cross-reactivity” value came out at 100% and the “Specificity (cross-reactivity), Verma” value turned out to be 100%. The “Specificity (cross-reactivity), Virtanen” value in [2] was 100%. Moreover, in data set [3], the “Specificity (percentage of cross reactivity), Wurzeburger” value is on record as 2.4%. Moreover, the “peripheral activity” value in [8] is given as “the most potent parasympathetic antispasmodic known”. Besides, in data set [9], the “quantity needed for flush” value is recorded as “Less quantities of L-hyoscyamine were needed than atropine”. Moreover, the “effect on excitability of the spinal cord” value in [4] was “no effect”. The narcotization result in [5] is listed as “not affected”.

Take `CN1[C@@H]2C[C@@H](OC(=O)[C@H](CO)c3ccccc3)C[C@H]1[C@@H]1O[C@@H]12` [Scopolamine, 1-scopolamine-HCl]: the “% Cross-reactivity” value in [1] was determined as 0%.

With `CN1[C@@H]2CC[C@H]1C[C@@H](O)C2` [Tropine, tropine], in data set [1], the “% Cross-reactivity” value is on record as 0% and the “recognition by / cross-reaction” value was “did not cross-react with the antibody”.

For the compound `CN1[C@@H]2CC[C@H]1C[C@@H](OC(=O)C(CO)c1ccccc1)C2` (stereo partly drawn) [atropine sulfate], for the setting “after 3 hours”, the “serum level of 1-hyoscyamine after 3 hours” value is given as “approximately 50%”. For the same compound, the serum level course result (in vivo) is “steady decline curve after 40 minutes”.
